Results on 5 molecules are retold here after patent US12043645B2, “Adenosine analogs as methyltransferase inhibitors for treating cancer” (MEMORIAL SLOAN KETTERING CANCER CENTER, priority 2017, dated 2024).

Where only a bound is given, the exact number is not on record here.

What all share (assay type): cell-based
For experiment [1], the system named is MDA-MB-231 cells (BAF155 and PABP1 biomarkers). Description: EC50 assay: western blot of BAF155 and PABP1 biomarkers in MDA-MB-231 cells. The note with it: Homo sapiens, 48 h, two days treatment. As for the experimental part: (§1) 1˜2×10e^5 MCF-7 cells or MDA-MB-231 cells per were seeded into 6-well plate. Two days later, cells were treated with inhibitors or control for additional two days. Then cells were collected by trypsinization, washed with Dulbecco's phosphate buffer saline and lysed by suspension in lysis buffer. The suspension was kept on ice for 30 min to achieve complete lysis or the suspension can be sonicated to achieve complete lysis. After centrifugation, supernatant were collected and total protein was quantified, and western blot samples were prepared with the SDS sample buffer Proteins were transferred to a nitrocellulose membrane for 1.5 hr at 350 mA at cold room. Membranes were blocked with 5% nonfat milk dissolved in PBST at room temperature for 1 hour and incubated overnight with primary antibody diluted in 5% nonfat milk dissolved in PBST at 4° C. Membranes were then washed with PBST for 10 min/each three times, and incubated with HRP-conjugated secondary antibody for 1 hour at room temperature, and washed with PBST for 10 min/each three times, and then detected by ECL reaction and X-ray film exposure. BAF155 and PABP1 were used as biomarkers to determine the EC50 values.

Experiment [2] deals with HCC1954 breast cancer cells. Description: Transwell invasion assay. How it is done:
In another example, a compound's effect on cancer cell migration and invasion were evaluated in a transwell invasion assay. In one such example, addition of compound 6 in a concentration of 5 μM and 10 μM caused an approximately 50% and an approximately 75% reduction, respectively, of invasion of HCC1954 breast cancer cells in the assay.

The subject of experiment [3] is MCF-7 cells (BAF155 and PABP1 biomarkers). The experiment can be described thus: EC50 assay: western blot of BAF155 and PABP1 biomarkers in MCF-7 cells. The note with it: Homo sapiens, MCF7, 48 h, two days treatment. How it is done:
as §1

For `COc1ccc(CCNC(=O)C(CC[C@H](CNCc2ccccc2)C[C@H]2O[C@@H](n3cnc4c(N)ncnc43)[C@@H](O)C2O)NC(=O)CC(C)(C)C2=C(C)C(=O)C(C)=C(C)C2=O)cc1` (stereo partly shown) [Example 6], the concentration giving a half-maximal response (EC50) in experiment [1] is below 0.5 µM. Further, the entries for the “reduction of invasion of HCC1954 breast cancer cells” value in experiment [2] (concentration of 5 μM) and in experiment [2] (concentration of 10 μM) were “approximately 50%” and “approximately 75%”, respectively.

Molecule `COc1ccc(CCNC(=O)[C@@H](N)CC[C@H](CNCc2ccccc2)C[C@H]2O[C@@H](n3cnc4c(N)ncnc43)[C@@H](O)C2O)cc1` (stereo partly shown) [Example 1] gave an EC50 in experiment [3] of 15 µM.

Turning to `CC(=O)Oc1cc(C)cc(C)c1C(C)(C)CC(=O)N[C@@H](CC[C@H](CNCc1ccccc1)C[C@H]1O[C@@H](n2cnc3c(N)ncnc32)[C@@H](O)C1O)C(=O)O` (stereo partly shown) [Example 2], it took 10 µM to reach a half-maximal effect in experiment [3] (EC50).

In experiment [3], `CC1=CC(=O)C(C(C)(C)CC(=O)N[C@@H](CC[C@H](CNCc2ccccc2)C[C@H]2O[C@@H](n3cnc4c(N)ncnc43)[C@@H](O)C2O)C(=O)O)=CC1=O` (stereo partly shown) [Example 4] displayed a concentration for a half-maximal effect (EC50) below 10 µM.

In the case of `COc1ccc(CCNC(=O)[C@H](CC[C@H](CNCc2ccccc2)C[C@H]2O[C@@H](n3cnc4c(N)ncnc43)[C@@H](O)C2O)NC(=O)CC(C)(C)c2c(C)cc(C)cc2OC(C)=O)cc1` (stereo partly shown) [Example 3], the EC50 in experiment [3] is below 5 µM.
